The results in this text go back to US7855076B2, “Use of discoidin domain receptor 1 (DDR1) and agents that affect the DDR1/collagen pathway” (The United States of America as represented by the …, priority 2002, dated 2010).

Assay type in all cases: cell-based, human
Experiment [1] concerns THP-1 cells. The experiment in a line: Adherence of THP-1 cells to coated plates. The settings on record: DDR1a- or DDR1b-overexpressing THP-1 cells, 30 minutes. The procedure: 5×10^5 cells/ml were cultured on either BSA (10 mg/ml)- or collagen (20 μg/ml) and BSA-coated plates for 30 (FIG. 2A) or 120 minutes (FIG. 2B) at 37° C. in a 5% CO2 humidified incubator. Normal mouse IgG or anti-β1 integrin blocking IgG was added to measure the effect of β1 integrin in the assay. The number of adherent cells in each 400× visual field was counted. The results are presented as means ±SE of four individual fields. Data are representative of three experiments with two independent clones overexpressing either DDR1a or DDR1b.
To determine the effects of collagen on the functions of DDR1a- and DDR1b-overexpressing THP-1 cells, the cells were incubated on collagen-coated plastic plates. Twenty-four-well plates were coated with 100 μl/well human collagen type I (20 μg/ml) overnight at 4° C., and then with 200 μl/well 10 mg/ml bovine serum albumin (BSA) for 1 hour at 37° C. Cells were plated at the cell density of 1×10^5 cells/ml to the coated wells and were incubated for 30 minutes at 37° C. in 5% CO2 humidified atmosphere. Nonadherent cells were removed by washing three times with PBS. Cells that remained on the coated surface were considered to be adherent, and the number of cells in each 400 field was counted. Results were presented as mean ±SE per 400 field.

The test system of experiment [2] is THP-1 cells. The experiment in a line: Proliferation of PMA-treated THP-1 cells. To be noted: DDR1b-overexpressing cells on collagen-coated plates, 10 nM PMA, 24 hour and 48 hour, compared with parental, mock or DDR1a cells. The procedure:
One hundred μl of cell suspension (5×10^6/ml) were plated in 96-well tissue culture plates either uncoated or collagen-coated, and incubated at 37° C. in the presence of 10 nM phorbol 12-myristate 13 acetate (PMA) for 24 or 48 hours (FIG. 4A). Data are shown as the mean ±SD of 10 wells. *p<0.01 by Bonferroni/Dun with One Way Factorial ANOVA. Twenty μl of each cell lysate were loaded and Western blotting was performed. The expression levels of DDR1 in DDR1a- or DDR1b-overexpressing THP-1 cells before and after treatment with PMA plus collagen are shown in FIG. 4C. […]
One hundred μl of cell suspension (5×10^6/ml) were plated in 96-well tissue culture plates either collagen-coated or non-coated, and incubated at 37° C. in 5% CO2 humidified atmosphere in the presence of 10 nM PMA for 48 hours. Cell proliferation was measured by using the CellTiter 96 Aqueous Non-Radioactive Cell Proliferation Assay Kit (Promega, Madison, Wis.) according to the manufacture's protocol. Trypan-blue staining was also used to measure the number of live cells in each culture.

The test system of another experiment is PMN. Nature of the experiment: MCP-1 release by PMN (neutrophils), ELISA. As for the experimental part: Human PMN and peripheral blood mononuclear cells (PBMC) were obtained from heparinized blood from human donors (10 units of heparin per ml of blood). One volume of 5% dextran (T-500 Pharmacia, Piscataway, N.J.) in phosphate buffered saline (PBS) was added to three volumes of blood in 50 ml polypropylene tubes. After a 40 minute incubation at room temperature, the leukocyte-rich plasma layer was removed and overlaid onto Lymphoprep in 50 ml tubes and the tubes were centrifuged at 800×g for 20 minutes at room temperature. PMN were separated from erythrocytes by lysis in 0.2% NaCl, washed in complete medium three times at 4° C. and resuspended in complete medium. PBMC contained in the PMN preparations obtained by this method were less than 0.5% by morphologic examination. Cell viability was higher than 98% by trypan blue staining.
A panel of cytokines was previously tested for their ability to induce MCP-1 production in PMN and it was reported that TNF-α and IFN-γ could cooperate to induce a high level of MCP-1 production (Yamashiro et al., J. Leukoc. Biol. 69:698, 2001). […] The majority of MCP-1 was released between 24 hours and 48 hours, showing a delayed kinetics of MCP-1 release. […] The effect of IFN-γ was dose-dependent.
To confirm that activation of DDR1 was responsible for the increased release of MCP-1 by PMN treated with IFN-γ and collagen, 513 anti-DDR1 Ab was used instead of collagen. The concentrations of MCP-1 were measured in the Lymphokine Testing Laboratory, Clinical Services Program, SAIC-Frederick (Frederick, Md.) with an ELISA kit (R&D Systems) specific for human MCP-1.
Background: ELISA stands for enzyme-linked immunosorbent assay.

As to collagen, the “cells adhered to collagen-coated plates” value in the experiment on THP-1 cells [1] is given as ~62 % of total cells. Besides, the decrease of proliferation entry with THP-1 cells [2] is “about 50%”. Also, the “effect on MCP-1 production” value in the experiment with PMN (GM-CSF-treated PMN) is on record as “no significant effect”; with PMN (PMN treated with TNF-α plus IFN-γ or INF-α plus IFN-γ plus GM-CSF) it was “negative effect”; with PMN (PMN, no cytokine or TNF-α added), “no significant effect”.
